Data on four molecules can be found in paper PMC3750255, “Inhibition of Mycoplasma pneumoniae growth by FDA-approved anticancer and antiviral nucleoside and nucleobase analogs” (BMC Microbiology, 2013).

In brackets after ≈: the same amount, converted by molar mass. Several values for one entry are separate records, joined by “and”; a condition that tells them apart may be missing. Equal values may be shown once. Read-outs that look alike come from different tables or passages of the source.

For one data set, the target named is T1, Ureaplasma TK (Ureaplasma parvum serovar 3, UniProt Q9PPP5).
T1 construct: made in house
T1 sequence (Q9PPP5 1-223): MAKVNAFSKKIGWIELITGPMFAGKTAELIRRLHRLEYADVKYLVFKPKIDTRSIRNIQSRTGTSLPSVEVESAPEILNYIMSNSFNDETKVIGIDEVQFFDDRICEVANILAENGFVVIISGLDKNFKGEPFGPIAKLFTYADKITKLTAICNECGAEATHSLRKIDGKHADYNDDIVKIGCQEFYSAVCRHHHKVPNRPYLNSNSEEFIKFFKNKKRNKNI
In words: Thymidine kinase inhibition with [3H]-dT as substrate. Format: biochemical. Particulars: 10 μM tritium labelled thymidine. On the procedure:
(§1) Thymidine kinase assay was performed using tritium labelled thymidine ([^3H]-dT) as substrate and various concentrations of the inhibitors essentially as previously described to determine the IC50 values of TFT and 5FdU.

The next data set has as its target T2, human TK2 (Homo sapiens, UniProt O00142).
T2 construct: made in house
T2 sequence (O00142 34-265): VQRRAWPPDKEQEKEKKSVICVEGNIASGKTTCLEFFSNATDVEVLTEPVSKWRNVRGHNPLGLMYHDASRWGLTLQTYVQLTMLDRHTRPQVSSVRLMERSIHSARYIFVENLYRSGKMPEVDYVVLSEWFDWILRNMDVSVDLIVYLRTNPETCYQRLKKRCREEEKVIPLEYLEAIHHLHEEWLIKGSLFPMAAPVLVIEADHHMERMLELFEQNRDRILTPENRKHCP
Described as above. The data set is classed as biochemical. The settings on record: 10 μM tritium labelled thymidine. On the procedure: as §1

For the next data set, the target named is T3, human TK1 (Homo sapiens, UniProt P04183).
T3 construct: made in house
T3 sequence (P04183 1-234): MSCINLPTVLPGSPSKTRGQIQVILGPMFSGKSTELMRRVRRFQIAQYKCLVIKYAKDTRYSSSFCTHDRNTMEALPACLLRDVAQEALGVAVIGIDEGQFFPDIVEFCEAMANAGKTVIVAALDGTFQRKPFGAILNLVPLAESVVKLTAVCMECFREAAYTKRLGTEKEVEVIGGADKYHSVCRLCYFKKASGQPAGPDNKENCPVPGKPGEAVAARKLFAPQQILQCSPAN
The description is as above. The data set is classed as biochemical. Particulars: 10 μM tritium labelled thymidine. On the procedure: as §1

Data set [1] deals with M. pneumoniae thyA mutant (lacking TS activity). The experiment in a line: microbe, parasite or virus in culture. Particulars: Mycoplasmoides pneumoniae, read-out: thyA mutant MIC. Format: cell-based, Mycoplasma pneumoniae. On the procedure: (§2) A series dilution of each compound in Mycoplasma growth medium was added to Mpn cultures in 96-well plates. The plates were sealed and incubated at 37°C. Mpn growth was monitored by using growth index value e.g. the ratio of absorbance at 450 nm and 560 nm of the culture medium. Thirty nucleoside and nucleobase analogs and a nucleoside transporter inhibitor were included, and two Mpn strains, wild type and a thyA mutant (lacking TS activity), were used.
(§3) Nucleoside and nucleobase analogs were dissolved in dimethyl sulfoxide (DMSO) as stock solutions and diluted with Mpn culture medium to the desired concentration immediately prior to use.
(§4) Mpn laboratory strain M129 wild type and a thyA mutant strain [31] were used in this study. Mpn was cultured at 37°C in a CO2 incubator using 75 cm^2 tissue culture flasks containing 50 ml Hayflick’s medium, and harvested at day 4 when the medium color change was observed. The cells were harvested and the pellet was resuspended in 6 ml fresh medium and the cfu/ml was determined by serial dilution (10-fold) and plating on broth agar plate. Colonies was counted and cfu/ml was calculated.
(§5) Inhibition studies were performed in 96-well plates containing 200 μl Mpn culture (approximately 10^6 cfu ml^-1) in Hayflick’s medium and 200 μl each compound in series dilutions (2-fold) with the growth medium, with three to four replicas. The plates were sealed with clear adhesive sheets and incubated at 37°C incubator. Absorbance ratio at 450 nm and 560 nm was used as Mpn growth index, which was measured daily, and by visual detection for at least 8 days, as previously described. […] The MICs (minimal inhibitory concentration required to inhibit Mpn growth to 90%) were determined as the lowest concentration at which the growth index was ≈ 10% of the control values (at the time when the control culture medium color turned yellow), essentially as described.

For the next data set, the system named is Mpn wild type cells. In words: Uptake and metabolism of tritium labelled natural nucleoside and nucleobases in the presence of analogs. The settings on record: for [3H]-Ade Total uptake / [3H]-Gua Total uptake / [3H]-Hx Total uptake / [3H]-Ura Total uptake / [3H]-dT Total uptake / [3H]-Ade Incorporation / [3H]-Gua Incorporation / [3H]-Hx Incorporation / [3H]-Ura Incorporation / [3H]-dT Incorporation: 10 μM analog, 70 hours; for [3H]-Ade Total uptake / [3H]-Gua Total uptake / [3H]-Hx Total uptake / [3H]-Ura Total uptake / [3H]-dT Total uptake: 37°C, radioactivity in cells / total added; for [3H]-Ade Incorporation / [3H]-Gua Incorporation / [3H]-Hx Incorporation / [3H]-Ura Incorporation / [3H]-dT Incorporation: acid insoluble fraction / total in cells. Format: cell-based, Mycoplasma pneumoniae. On the procedure: The cells were harvested and analyzed essentially as described. Analogs used were dipyridamole, 6-thioguanine (6-TG), trifluorothymidine (TFT), gemcitabine (dFdC) and 5-fluorodeoxyuridine (5FdU). Total uptake is the percent of radioactivity recovered in the cells divided by total radioactivity added to the growth medium. Percent of acid insoluble (radioactivity found in DNA and RNA) was also calculated. These experiments were done more than three times and data are given as mean ± SD.

For data set [2], the system named is M. pneumoniae wild type (laboratory strain M129). The experiment in a line: Mpn growth inhibition in 96-well plates (growth index A450/A560), wild type strain. Particulars: for MIC: Mycoplasmoides pneumoniae, read-out: Wild type MIC. Format: cell-based, Mycoplasma pneumoniae. On the procedure: as §2, §3, §4, §5
In another data set the target is T4, TK in Mpn extracts (Mycoplasmoides pneumoniae, UniProt P75070).
T4 construct: endogenous in cells; host or cells: Mycoplasma pneumoniae M129 total protein extract
T4 sequence (P75070 1-191): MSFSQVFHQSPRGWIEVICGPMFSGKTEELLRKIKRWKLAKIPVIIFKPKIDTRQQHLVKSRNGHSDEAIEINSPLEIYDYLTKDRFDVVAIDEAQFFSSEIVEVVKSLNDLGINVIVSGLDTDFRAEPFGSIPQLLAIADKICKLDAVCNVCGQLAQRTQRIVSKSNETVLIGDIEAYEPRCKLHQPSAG
The experiment in a line: Inhibition of dT phosphorylation in Mpn protein extracts. Format: biochemical. On the procedure: Both TFT and 5FdU are substrates of Mycoplasma and human TKs, as described above and earlier studies.
as §1

A further data set addresses T5, human HPRT (Homo sapiens, UniProt P00492).
T5 construct: made in house
T5 sequence (P00492 1-218): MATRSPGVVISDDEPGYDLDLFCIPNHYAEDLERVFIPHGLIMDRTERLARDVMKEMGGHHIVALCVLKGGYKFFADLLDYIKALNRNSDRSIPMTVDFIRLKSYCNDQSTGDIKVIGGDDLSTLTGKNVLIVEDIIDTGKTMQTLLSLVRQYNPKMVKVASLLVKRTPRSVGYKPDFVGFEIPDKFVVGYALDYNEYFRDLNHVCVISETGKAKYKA
The experiment in a line: HPRT inhibition, DE-81 filter paper assay. The data set is classed as biochemical.

For data set [3], the target named is T6, Mpn HPRT (Mycoplasmoides pneumoniae, UniProt P75119).
T6 sequence (P75119 1-175): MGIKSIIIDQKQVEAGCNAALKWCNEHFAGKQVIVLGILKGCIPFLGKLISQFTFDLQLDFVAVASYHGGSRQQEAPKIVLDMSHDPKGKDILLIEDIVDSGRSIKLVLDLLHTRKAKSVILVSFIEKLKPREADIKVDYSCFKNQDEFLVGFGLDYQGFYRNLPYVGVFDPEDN
In words: biochemical.

For data set [4], the target named is T6, Mpn HPRT. The settings on record: as substrate of Mpn HPRT.
Substrate in data set [5]: O=c1[nH]cnc2nc[nH]c12
In words: purified protein, by the assay type. The settings on record: other: as substrate of Mpn HPRT, Michaelis-Menten; pH 7.5; 37.0 °C.

Turning to `O=c1[nH]c(=O)n([C@H]2C[C@H](O)[C@@H](CO)O2)cc1F` [5-fluorodeoxyuridine (5FdU), 5-fluorodeoxyuridine], on Ureaplasma TK, inhibition was half-maximal at 1000 ± 13.3 µM (IC50). The IC50 on human TK2 stood at 158 ± 2.7 µM. Further, it took 75.9 ± 2.6 µM to reach half-maximal inhibition on human TK1 (IC50). Also, in [1], the MIC worked out at 15.6 µg/mL (≈ 63.4 µM). Further, in the data set with Mpn wild type cells (10 μM analog versus control), the “Stimulation of [3H]-dT uptake” value is 2 fold. Moreover, in the data set on Mpn wild type cells, the “[3H]-Ade Total uptake” value is listed as 0.36±0.1%, the “[3H]-Gua Total uptake” value stood at 0.16±0.03%, the “[3H]-Hx Total uptake” value amounted to 0.006± 0.001% and the “[3H]-Ura Total uptake” value came out at 0.087±0.003%. In the data set with Mpn wild type cells, the “[3H]-dT Total uptake” value is recorded as 14.7±0.2%, the “[3H]-Ade Incorporation” value is given as 42±2%, the “[3H]-Gua Incorporation” value is listed as 87±3% and the “[3H]-Hx Incorporation” value is on record as 76±4%. In the data set on Mpn wild type cells, the “[3H]-Ura Incorporation” value is 19±7% and the “[3H]-dT Incorporation” value was determined as 96.0±0.5%. In data set [2], the MIC was 7.8 µg/mL (≈ 31.7 µM). On TK in Mpn extracts, this molecule yielded an IC50 of 47.9 ± 1.2 µM.
For `Nc1nc2nc[nH]c2c(=S)[nH]1` [6-thioguanine (6-TG), 6-thioguanine], at human HPRT (10 μM [3H]-guanine, read-out: IC50 Human HPRT, substrate guanine), the IC50 worked out at 39.8 ± 4 µM. The same molecule had an IC50 at human HPRT (IC50 Human HPRT, substrate hypoxanthine, 10 μM [3H]-hypoxanthine) of 20.5 ± 6.5 µM. The MIC in data set [1] worked out at 0.2 µg/mL (≈ 1.2 µM). Besides, in the data set with Mpn wild type cells, the “[3H]-Ade Total uptake” value was found to be 0.66±0.1%, the “[3H]-Gua Total uptake” value amounted to 0.080±0.002%, the “[3H]-Hx Total uptake” value is 0.005 ± 0.0004% and the “[3H]-Ura Total uptake” value was found to be 0.21±0.003%. Further, in the data set on Mpn wild type cells, the “[3H]-dT Total uptake” value is listed as 7.9±0.6%, the “[3H]-Ade Incorporation” value was 46±3%, the “[3H]-Gua Incorporation” value came to 67±3% and the “[3H]-Hx Incorporation” value is recorded as 43±6%. Also, in the data set with Mpn wild type cells, the “[3H]-Ura Incorporation” value is listed as 39±8% and the “[3H]-dT Incorporation” value was found to be 97.4±0.7%. In addition, the IC50 on Mpn HPRT [3] (substrate guanine, 10 μM [3H]-guanine) was 3.2 µM and 3.16 µM. Also, inhibition against Mpn HPRT [3] (substrate hypoxanthine, 10 μM [3H]-hypoxanthine) was half-maximal at 3.5 ± 0.5 µM (IC50). Further, in data set [2], the MIC amounted to 0.2 µg/mL (≈ 1.2 µM). In [2] (strain not specified, 90% growth inhibition), the “MIC (Mpn growth)” value is 0.20 µg/mL (≈ 1.2 µM).
`Nc1nc2nc[nH]c2c(=O)[nH]1` [Gua, guanine]: on Mpn HPRT [4], the Hill coefficient is on record as 3.5 and the Vmax was 2.7 ± 0.1 µmol/min/mg. Besides, the S0.5 on Mpn HPRT [4] (Hill equation) amounted to 107.6 ± 6.2 µM.

B1: Mpn HPRT (Mycoplasmoides pneumoniae M129) (protein)
chain: MGIKSIIIDQKQVEAGCNAALKWCNEHFAGKQVIVLGILKGCIPFLGKLISQFTFDLQLDFVAVASYHGGSRQQEAPKIVLDMSHDPKGKDILLIEDIVDSGRSIKLVLDLLHTRKAKSVILVSFIEKLKPREADIKVDYSCFKNQDEFLVGFGLDYQGFYRNLPYVGVFDPEDN
As for B1, in data set [5], the Km turned out to be 100.1 ± 6.5 µM.

As a reminder, the IC50 is the concentration that gives 50% inhibition. One may read the Hill coefficient as a measure of the steepness of the concentration-response curve. The term Vmax denotes the top rate of the reaction or transport when substrate is in excess. For orientation: Km means the substrate concentration at which the rate is half of its maximum.
